Assay results from ChEMBL document CHEMBL5226319, “Small molecule approaches to treat autoimmune and inflammatory diseases (Part III): Targeting cytokines and cytokine receptor complexes” (Bioorg Med Chem Lett, 2021).
Values belong to the compound of their own block, whether it stands above or below them.

Experiments:
[1] = Inhibition of human CXCL1 protein secretion in IL-36 gamma-stimulated HaCaT cells; format: cell-based
[2] = molecular target: T1, Interleukin-18 (Homo sapiens, UniProt Q14116); test: Inhibition of human IL-18 expressed in Escherichia coli BL21(DE3) cells incubated for 18 hrs
T1 sequence (Q14116 whole entry): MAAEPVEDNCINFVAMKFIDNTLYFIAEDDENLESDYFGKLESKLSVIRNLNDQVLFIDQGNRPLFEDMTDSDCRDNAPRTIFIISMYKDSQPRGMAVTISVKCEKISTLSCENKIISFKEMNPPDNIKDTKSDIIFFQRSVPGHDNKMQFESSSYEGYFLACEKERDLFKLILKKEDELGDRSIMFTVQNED

[3] = Inhibition of OSMR/gp130 (unknown origin) by SPR analysis; set-up: species or system Homo sapiens
[4] = Inhibition of IL-6/gp130 (unknown origin) by SPR analysis; set-up: species or system Homo sapiens
[5] = molecular target: T2, Interleukin-33 (Homo sapiens, UniProt O95760); test: Inhibition of human IL-33 incubated for 1 hrs by AlphaLISA assay
T2 sequence (O95760 whole entry): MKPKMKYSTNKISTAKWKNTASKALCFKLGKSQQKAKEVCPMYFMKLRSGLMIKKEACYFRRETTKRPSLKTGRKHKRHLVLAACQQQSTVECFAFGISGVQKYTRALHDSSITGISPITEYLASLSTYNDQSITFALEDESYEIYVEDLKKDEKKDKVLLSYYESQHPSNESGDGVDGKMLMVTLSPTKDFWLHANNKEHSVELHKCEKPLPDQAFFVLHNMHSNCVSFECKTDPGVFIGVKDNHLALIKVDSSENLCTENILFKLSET

[6] = species on record: Homo sapiens; test: (§1) Binding affinity to gp130 (unknown origin) assessed as fold increase
[7] = as §1; set-up: species or system Homo sapiens
[8] = molecular target: T3, Interleukin-2 receptor subunit alpha (Homo sapiens, UniProt P01589); test: Inhibition of IL-2R alpha (unknown origin)
T3 sequence (P01589 whole entry): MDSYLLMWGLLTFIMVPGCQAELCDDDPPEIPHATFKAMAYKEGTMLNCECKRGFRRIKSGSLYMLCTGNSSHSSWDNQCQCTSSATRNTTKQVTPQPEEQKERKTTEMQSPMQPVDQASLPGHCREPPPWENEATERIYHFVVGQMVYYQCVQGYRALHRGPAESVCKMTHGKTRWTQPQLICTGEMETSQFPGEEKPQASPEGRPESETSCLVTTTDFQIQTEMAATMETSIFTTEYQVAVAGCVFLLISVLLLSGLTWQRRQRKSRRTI

[9] = Binding affinity to gp130 (unknown origin) assessed as dissociation constant by SPR analysis; set-up: species or system Homo sapiens
[10] = molecular target: T4, Interleukin-4 (Homo sapiens, UniProt P05112); test: Inhibition of IL-4 (unknown origin) in human THP-1 cells assessed as inhibition of STAT6 phosphorylation by HEK-Blue assay; format: cell-based
T4 sequence (P05112 whole entry): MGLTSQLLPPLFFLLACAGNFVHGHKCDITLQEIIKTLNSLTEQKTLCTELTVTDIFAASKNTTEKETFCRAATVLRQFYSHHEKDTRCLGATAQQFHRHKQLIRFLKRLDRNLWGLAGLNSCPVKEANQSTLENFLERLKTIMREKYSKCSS

[11] = molecular target: T4, Interleukin-4; test: Inhibition of IL-4 (unknown origin) assessed as dissociation constant by SPR analysis
[12] = molecular target: T5, Interleukin-1 receptor type 1 (Homo sapiens, UniProt P14778); test: Inhibition of human IL1-R1 assessed as dissociation constant incubated for 5 mins by SPR analysis
T5 sequence (P14778 whole entry): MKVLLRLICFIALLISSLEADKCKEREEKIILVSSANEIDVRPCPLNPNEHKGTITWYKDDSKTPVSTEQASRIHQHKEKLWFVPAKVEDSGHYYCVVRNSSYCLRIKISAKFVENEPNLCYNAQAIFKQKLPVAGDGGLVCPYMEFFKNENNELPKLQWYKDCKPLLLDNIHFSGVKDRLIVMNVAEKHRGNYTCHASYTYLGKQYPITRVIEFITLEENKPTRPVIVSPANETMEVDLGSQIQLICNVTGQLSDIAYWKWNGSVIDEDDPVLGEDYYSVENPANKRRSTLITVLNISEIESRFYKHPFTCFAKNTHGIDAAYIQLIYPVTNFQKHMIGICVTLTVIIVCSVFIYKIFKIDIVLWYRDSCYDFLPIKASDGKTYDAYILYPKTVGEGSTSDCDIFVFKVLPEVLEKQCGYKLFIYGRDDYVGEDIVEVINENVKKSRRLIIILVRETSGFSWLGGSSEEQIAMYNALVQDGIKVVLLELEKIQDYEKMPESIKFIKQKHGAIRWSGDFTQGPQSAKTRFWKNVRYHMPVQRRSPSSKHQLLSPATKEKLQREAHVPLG

Structure (SMILES): COC(c1ccccc1)(c1ccccc1)[C@H](Oc1nc(C)cc(-c2ccc(C)c(N)c2)n1)C(=O)O
IC50 [1]: 0.031 µM

Structure (SMILES): N#Cc1ccc(NC(=O)Nc2ccc(Oc3ccc(NC(=O)Nc4ccc(C#N)cc4)cc3)cc2)cc1
EC50 [2]: 0.25 µM

Structure (SMILES): Brc1ccc(Nc2nc(-c3ccccc3)cs2)cc1
Kd [3]: 5.7 µM | Kd [4]: 2.9 µM

Structure (SMILES): COc1ccc([C@@H]2CCCN2Cc2ccc(-c3ccccc3[N+](=O)[O-])o2)cc1
IC50 [5]: 42 µM

Structure (SMILES): COc1ccc([C@H]2CCCN2Cc2ccc(-c3ccccc3[N+](=O)[O-])o2)cc1
IC50 [5]: 43 µM

Structure (SMILES): CCCCC1=C(C)C(=O)[C@@](C)(CN2c3ccccc3[C@]3(O)CCO[C@H]23)C1=O
Kd [9]: 288 µM

Structure (SMILES): N#Cc1c(-c2ccc(O)c(O)c2)cc(-c2ccc(F)cc2)nc1N
EC50 [10]: 3.1 µM | Kd [11]: 1.8 µM

Results, then the compound that gave them:

fold change (FC) [6]: 5 | Kd [7]: 29 µM
Structure (SMILES): CCCCc1ccc(O)c(Cn2cc(CC(O)COC(=O)c3ccccc3)c3ccccc32)c1O (stereo unspecified)

IC50 [8]: 3 µM
Structure (SMILES): COC(=O)[C@H](Cc1ccc(C#Cc2ccccc2)cc1)NC(=O)C[C@H]1CCCN(C(=N)N)C1

fold change (FC) [6]: 5
Structure (SMILES): CCCCc1ccc(OC)c(CN2c3ccccc3[C@]3(O)C[C@@H](COC(=O)c4ccccc4)O[C@H]23)c1OC

fold change (FC) [6]: 5 | Kd [7]: 36.9 µM
Structure (SMILES): CCCCc1ccc(O)c(CN2c3ccccc3[C@]3(O)C[C@@H](COC(=O)c4ccccc4)O[C@H]23)c1O

Kd [12]: 316 µM
Structure (SMILES): NCCc1c(-c2ccccc2)n(-c2ccccc2)c2ccccc12
